In one data set the test system is Ba/F3-EGFR_WT cells. Description: Cell growth inhibitory effect, wild-type EGFR-expressing Ba/F3 cell line (CellTiter-Glo). The following applies: Mus musculus, BaF3, 72 h, read-out: IC50 (nM) WT. It counts as cell-based.
The subject of data set [1] is Ba/F3-EGFR L861Q+T790M cells. The data set can be described thus: Cell growth inhibitory effect, L861Q+T790M mutant EGFR-expressing Ba/F3 cell line (CellTiter-Glo). It counts as cell-based, mouse. Particulars: for IC50: Mus musculus, 72 h, read-out: IC50 (nM) L861Q + T790M. Background: Cellular ATP, detected with luciferase, serves as a proxy for viable cell number.
Data set [2] deals with Ba/F3-EGFR G719A+T790M cells. Description: Cell growth inhibitory effect, G719A+T790M mutant EGFR-expressing Ba/F3 cell line (CellTiter-Glo). Particulars: for IC50: Mus musculus, 72 h, read-out: IC50 (nM) G719A + T790M. It counts as cell-based, mouse.
A further data set deals with Ba/F3-EGFR G719A cells. The data set can be described thus: Cell growth inhibitory effect, G719A mutant EGFR-expressing Ba/F3 cell line (CellTiter-Glo). Format: cell-based, mouse. Particulars: for IC50: Mus musculus, 72 h, read-out: IC50 (nM) G719A.
A further data set deals with Ba/F3-EGFR L861Q cells. Description: Cell growth inhibitory effect, L861Q mutant EGFR-expressing Ba/F3 cell line (CellTiter-Glo). Format: cell-based, mouse. Particulars: for IC50: Mus musculus, 72 h, read-out: IC50 (nM) L861Q.
The subject of data set [3] is NIH3T3-EGFR G719A+T790M cells. The data set can be described thus: in vivo. The following applies: nude mice; for T/C (%): final evaluation day.
The next data set is described as follows: in vivo. The following applies: mouse, in vivo; nude mice, oral once daily, 14 days, G719A+T790M model; read-out: Maximum tolerated dose (weight loss during dosing period less than 20%).
Another data set deals with T1, human EGFR L861Q+T790M (Homo sapiens, UniProt P00533, L861Q/T790M).
T1 construct: expressed in transfected cells; host or cells: Jump-In Grip HEK293 cells (Thermo Fisher Scientific), pJTI R4 DEST CMV pA vector
The data set can be described thus: Intracellular EGFR phosphorylation in mutant EGFR forced expression system using HEK293 cells. It counts as cell-based. Particulars: HEK293 cells expressing human EGFR L861Q+T790M, 6 hours; read-out: IC50, phosphorylated EGFR inhibition, L861Q + T790M.

A further data set has as its target T2, human EGFR E709K (Homo sapiens, UniProt P00533, E709K).
T2 construct: expressed in transfected cells; host or cells: Jump-In Grip HEK293 cells (Thermo Fisher Scientific), pJTI R4 DEST CMV pA vector
The data set is described as above. It counts as cell-based. The following applies: HEK293 cells expressing human EGFR E709K, 6 hours; read-out: IC50, phosphorylated EGFR inhibition, E709K.

A short description of data set [4]: Antitumor effect on mouse model subcutaneously transplanted with G719A mutant EGFR-expressing cell line. The following applies: nude, mouse, in vivo, po.
The test system of a further data set is NIH3T3-EGFR G719A cells. The description is as above. Particulars: nude mice.
For another data set, the target named is T3, human EGFR G719A+T790M (Homo sapiens, UniProt P00533, G719A/T790M).
T3 construct: expressed in transfected cells; host or cells: Jump-In Grip HEK293 cells (Thermo Fisher Scientific), pJTI R4 DEST CMV pA vector
T3 sequence (P00533 25-1210 G719A/T790M): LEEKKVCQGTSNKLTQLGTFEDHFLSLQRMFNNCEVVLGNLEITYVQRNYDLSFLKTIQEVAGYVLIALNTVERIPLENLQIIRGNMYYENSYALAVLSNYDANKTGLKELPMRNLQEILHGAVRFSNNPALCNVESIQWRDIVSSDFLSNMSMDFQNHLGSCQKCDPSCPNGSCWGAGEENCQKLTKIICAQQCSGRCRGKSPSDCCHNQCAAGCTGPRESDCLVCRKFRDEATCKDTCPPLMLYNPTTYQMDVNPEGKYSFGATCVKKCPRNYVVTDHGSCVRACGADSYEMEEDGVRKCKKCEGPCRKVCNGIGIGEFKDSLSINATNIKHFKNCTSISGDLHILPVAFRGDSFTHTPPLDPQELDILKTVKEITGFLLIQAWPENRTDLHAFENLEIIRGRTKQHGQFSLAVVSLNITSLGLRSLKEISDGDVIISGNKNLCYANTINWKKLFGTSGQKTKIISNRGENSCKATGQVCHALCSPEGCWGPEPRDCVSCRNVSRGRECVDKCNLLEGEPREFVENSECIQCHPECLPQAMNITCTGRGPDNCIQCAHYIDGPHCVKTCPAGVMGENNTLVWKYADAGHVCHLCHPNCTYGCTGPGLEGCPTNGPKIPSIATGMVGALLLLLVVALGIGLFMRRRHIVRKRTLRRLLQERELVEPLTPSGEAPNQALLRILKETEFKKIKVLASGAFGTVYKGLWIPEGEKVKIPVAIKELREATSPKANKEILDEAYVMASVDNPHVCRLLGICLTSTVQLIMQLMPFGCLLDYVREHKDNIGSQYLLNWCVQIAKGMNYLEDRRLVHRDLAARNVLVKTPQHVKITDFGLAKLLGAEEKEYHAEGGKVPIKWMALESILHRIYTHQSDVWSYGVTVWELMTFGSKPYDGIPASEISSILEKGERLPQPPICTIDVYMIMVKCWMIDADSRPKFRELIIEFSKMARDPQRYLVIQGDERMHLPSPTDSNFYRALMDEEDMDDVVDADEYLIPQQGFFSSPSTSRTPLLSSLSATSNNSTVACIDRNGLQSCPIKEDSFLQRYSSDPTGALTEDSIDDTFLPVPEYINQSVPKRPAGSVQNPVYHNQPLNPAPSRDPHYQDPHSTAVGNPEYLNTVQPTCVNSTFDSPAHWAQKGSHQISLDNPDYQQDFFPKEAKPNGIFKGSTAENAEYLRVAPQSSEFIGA
The data set can be described thus: Intracellular EGFR phosphorylation in mutant EGFR forced expression system using HEK293 cells. The following applies: HEK293 cells expressing human EGFR G719A+T790M, 6 hours; read-out: IC50, phosphorylated EGFR inhibition, G719A + T790M. It counts as cell-based.

The target in a further data set is T4, human EGFR L861Q (Homo sapiens, UniProt P00533, L861Q).
T4 construct: expressed in transfected cells; host or cells: Jump-In Grip HEK293 cells (Thermo Fisher Scientific), pJTI R4 DEST CMV pA vector
The description is as above. Format: cell-based. The following applies: HEK293 cells expressing human EGFR L861Q, 6 hours; read-out: IC50, phosphorylated EGFR inhibition, L861Q.

A further data set concerns the target T5, human EGFR E709A (Homo sapiens, UniProt P00533, E709A).
T5 construct: expressed in transfected cells; host or cells: Jump-In Grip HEK293 cells (Thermo Fisher Scientific), pJTI R4 DEST CMV pA vector
The description is as above. Format: cell-based. Particulars: HEK293 cells expressing human EGFR E709A, 6 hours; read-out: IC50, phosphorylated EGFR inhibition, E709A.

The next data set has as its target T6, human EGFR G719S (Homo sapiens, UniProt P00533, G719S).
T6 construct: expressed in transfected cells; host or cells: Jump-In Grip HEK293 cells (Thermo Fisher Scientific), pJTI R4 DEST CMV pA vector
The description is as above. Format: cell-based. The following applies: HEK293 cells expressing human EGFR G719S, 6 hours; read-out: IC50, phosphorylated EGFR inhibition, G719S.

A further data set deals with T7, human EGFR G719C (Homo sapiens, UniProt P00533, G719C).
T7 construct: expressed in transfected cells; host or cells: Jump-In Grip HEK293 cells (Thermo Fisher Scientific), pJTI R4 DEST CMV pA vector
Described as above. Format: cell-based. Particulars: HEK293 cells expressing human EGFR G719C, 6 hours; read-out: IC50, phosphorylated EGFR inhibition, G719C.

The target in a further data set is T8, human EGFR G719A (Homo sapiens, UniProt P00533, G719A).
T8 construct: expressed in transfected cells; host or cells: Jump-In Grip HEK293 cells (Thermo Fisher Scientific), pJTI R4 DEST CMV pA vector
T8 sequence (P00533 25-1210 G719A): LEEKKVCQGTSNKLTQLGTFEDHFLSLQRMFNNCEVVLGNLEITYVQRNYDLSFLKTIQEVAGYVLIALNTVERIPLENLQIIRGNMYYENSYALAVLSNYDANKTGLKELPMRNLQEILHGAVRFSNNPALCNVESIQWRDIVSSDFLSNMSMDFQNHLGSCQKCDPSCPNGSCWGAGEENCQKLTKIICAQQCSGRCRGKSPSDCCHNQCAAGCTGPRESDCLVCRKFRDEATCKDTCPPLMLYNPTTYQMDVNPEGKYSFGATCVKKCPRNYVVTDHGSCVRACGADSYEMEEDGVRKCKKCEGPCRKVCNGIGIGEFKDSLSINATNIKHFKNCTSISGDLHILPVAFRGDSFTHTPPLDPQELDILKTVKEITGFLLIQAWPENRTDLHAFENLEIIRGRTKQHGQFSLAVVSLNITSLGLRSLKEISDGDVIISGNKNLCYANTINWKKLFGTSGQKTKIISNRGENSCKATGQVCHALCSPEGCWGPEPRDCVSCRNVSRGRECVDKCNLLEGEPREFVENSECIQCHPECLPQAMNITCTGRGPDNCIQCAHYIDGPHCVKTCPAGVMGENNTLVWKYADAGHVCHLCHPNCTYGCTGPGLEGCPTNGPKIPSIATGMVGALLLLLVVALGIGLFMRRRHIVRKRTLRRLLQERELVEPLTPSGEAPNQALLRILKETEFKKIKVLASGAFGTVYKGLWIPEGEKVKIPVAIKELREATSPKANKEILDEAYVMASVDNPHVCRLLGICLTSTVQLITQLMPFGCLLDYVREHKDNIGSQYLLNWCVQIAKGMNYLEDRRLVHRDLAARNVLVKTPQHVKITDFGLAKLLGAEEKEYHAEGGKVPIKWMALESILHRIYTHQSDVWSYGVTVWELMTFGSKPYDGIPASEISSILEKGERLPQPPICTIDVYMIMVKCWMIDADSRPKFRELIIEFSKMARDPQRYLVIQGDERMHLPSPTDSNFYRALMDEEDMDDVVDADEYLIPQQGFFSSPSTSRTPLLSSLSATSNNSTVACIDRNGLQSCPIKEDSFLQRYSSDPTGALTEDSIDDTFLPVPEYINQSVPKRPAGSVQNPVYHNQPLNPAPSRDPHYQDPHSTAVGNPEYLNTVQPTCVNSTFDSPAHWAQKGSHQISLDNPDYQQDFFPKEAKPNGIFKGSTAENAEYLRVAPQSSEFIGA
The data set is described as above. It counts as cell-based. Particulars: HEK293 cells expressing human EGFR G719A, 6 hours; read-out: IC50, phosphorylated EGFR inhibition, G719A.

Experimental findings from US11701359B2, “Exon 18 and/or exon 21 mutant EGFR selective inhibitor” (priority 2017, dated 2023) are described below.

SMILES strings stand for the structures. Read-outs that look alike come from different tables or passages of the source.

T6 sequence (P00533 25-1210 G719S): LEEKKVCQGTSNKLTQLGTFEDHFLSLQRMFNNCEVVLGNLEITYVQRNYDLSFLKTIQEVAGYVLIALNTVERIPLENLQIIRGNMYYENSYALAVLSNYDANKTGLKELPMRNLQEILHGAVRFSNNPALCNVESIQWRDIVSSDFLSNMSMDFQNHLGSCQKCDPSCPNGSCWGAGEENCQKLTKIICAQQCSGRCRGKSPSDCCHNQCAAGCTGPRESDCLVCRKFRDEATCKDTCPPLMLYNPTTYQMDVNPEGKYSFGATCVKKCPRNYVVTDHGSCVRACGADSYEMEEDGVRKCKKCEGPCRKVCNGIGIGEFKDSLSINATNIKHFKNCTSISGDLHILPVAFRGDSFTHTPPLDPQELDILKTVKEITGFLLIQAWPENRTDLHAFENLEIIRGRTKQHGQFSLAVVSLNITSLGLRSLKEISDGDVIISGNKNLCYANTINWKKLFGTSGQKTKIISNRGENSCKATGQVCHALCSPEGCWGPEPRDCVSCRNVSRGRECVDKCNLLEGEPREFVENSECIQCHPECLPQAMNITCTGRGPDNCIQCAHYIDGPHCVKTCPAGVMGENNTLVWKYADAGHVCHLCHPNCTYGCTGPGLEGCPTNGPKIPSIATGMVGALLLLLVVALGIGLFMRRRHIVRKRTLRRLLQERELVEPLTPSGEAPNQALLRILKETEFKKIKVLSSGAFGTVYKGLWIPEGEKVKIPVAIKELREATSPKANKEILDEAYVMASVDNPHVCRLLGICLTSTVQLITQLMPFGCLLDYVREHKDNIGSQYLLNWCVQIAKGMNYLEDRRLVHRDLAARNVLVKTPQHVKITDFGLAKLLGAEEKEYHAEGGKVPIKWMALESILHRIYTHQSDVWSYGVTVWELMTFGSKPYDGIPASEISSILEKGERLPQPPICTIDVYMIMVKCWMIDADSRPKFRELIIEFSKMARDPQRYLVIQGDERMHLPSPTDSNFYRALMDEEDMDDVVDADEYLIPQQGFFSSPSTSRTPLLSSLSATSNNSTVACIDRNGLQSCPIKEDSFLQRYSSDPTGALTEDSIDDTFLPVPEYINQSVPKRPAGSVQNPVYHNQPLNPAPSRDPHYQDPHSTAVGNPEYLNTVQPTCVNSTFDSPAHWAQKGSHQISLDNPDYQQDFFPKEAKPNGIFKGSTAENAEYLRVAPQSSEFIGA
T2 sequence (P00533 25-1210 E709K): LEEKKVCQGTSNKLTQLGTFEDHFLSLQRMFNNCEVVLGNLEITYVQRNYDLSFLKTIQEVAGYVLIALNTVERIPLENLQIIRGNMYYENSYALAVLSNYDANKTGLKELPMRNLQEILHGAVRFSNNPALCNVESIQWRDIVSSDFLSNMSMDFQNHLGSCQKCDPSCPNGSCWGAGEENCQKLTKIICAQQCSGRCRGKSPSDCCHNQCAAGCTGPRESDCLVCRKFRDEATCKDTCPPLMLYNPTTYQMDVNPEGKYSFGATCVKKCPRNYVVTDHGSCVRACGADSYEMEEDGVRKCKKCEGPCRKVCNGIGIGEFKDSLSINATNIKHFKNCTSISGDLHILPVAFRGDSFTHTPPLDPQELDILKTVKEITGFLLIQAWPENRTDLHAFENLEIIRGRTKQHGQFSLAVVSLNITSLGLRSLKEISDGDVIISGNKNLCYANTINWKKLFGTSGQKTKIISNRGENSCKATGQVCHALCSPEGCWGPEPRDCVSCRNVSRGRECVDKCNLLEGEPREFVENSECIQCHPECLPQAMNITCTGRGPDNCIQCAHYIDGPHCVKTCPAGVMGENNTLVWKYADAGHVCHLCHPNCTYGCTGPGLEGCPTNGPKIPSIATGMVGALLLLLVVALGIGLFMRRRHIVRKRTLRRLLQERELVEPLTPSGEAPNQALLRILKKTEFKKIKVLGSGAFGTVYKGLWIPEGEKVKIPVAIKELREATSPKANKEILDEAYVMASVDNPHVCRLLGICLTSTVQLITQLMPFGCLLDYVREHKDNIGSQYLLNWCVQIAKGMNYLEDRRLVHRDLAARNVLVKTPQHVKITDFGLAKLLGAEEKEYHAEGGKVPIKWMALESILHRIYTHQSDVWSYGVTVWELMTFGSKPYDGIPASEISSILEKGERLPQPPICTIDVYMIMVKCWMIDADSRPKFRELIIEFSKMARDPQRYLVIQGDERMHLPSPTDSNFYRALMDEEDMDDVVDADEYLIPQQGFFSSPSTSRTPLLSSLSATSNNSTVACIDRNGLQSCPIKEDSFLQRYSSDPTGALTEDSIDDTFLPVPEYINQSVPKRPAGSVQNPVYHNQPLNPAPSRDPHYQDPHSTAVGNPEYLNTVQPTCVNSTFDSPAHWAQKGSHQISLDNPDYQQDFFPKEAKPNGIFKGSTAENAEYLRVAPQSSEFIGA

By IC50 is commonly meant the concentration that inhibits the measured activity by half. As to `C=CC(=O)Nc1cc(Nc2nccc(-c3cn(C)c4ccccc34)n2)c(OC)cc1N(C)CCN(C)C` [Osimertinib, osimertinib, reference compound], the IC50 amounted to 379 nM in the data set on Ba/F3-EGFR_WT cells; 36.4 nM in data set [1] (Ba/F3 EGFR); 89.4 nM in [2] (Ba/F3 EGFR); 209 nM in the data set with Ba/F3-EGFR G719A cells (Ba/F3 EGFR); 47 nM in the data set on Ba/F3-EGFR L861Q cells (Ba/F3 EGFR).
Consider `C=CC(=O)N[C@H]1C=C(C)c2c(-c3cnc4ccccc4c3)c3c(N)ncnc3n2C1` [Compound A, (S)-N-(4-amino-6-methyl-5-(quinolin-3-yl)-8,9-dihydropyrimido[5,4-b]indolizin-8-yl)acrylamide], for which the “T/C (%)” value in data set [3] (50 mg/kg, oral once daily) amounted to 47.7%; in data set [3] (100 mg/kg, oral once daily), 36.4%; in [3] (200 mg/kg, oral once daily), 28.0%. Besides, the “Symptoms (weight loss, abnormal feces, abnormal skin)” value in data set [3] (NIH3T3-EGFR G719A+T790M model, oral once daily, FIG. 4) is recorded as “without symptoms such as serious weight loss”; in the data set with NIH3T3-EGFR G719A cells (NIH3T3-EGFR G719A model, oral once daily 14 days, FIG. 2), “did not show symptoms”. In addition, the “Antitumor effect (tumor volume)” value was “significant antitumor effect” in data set [3] (NIH3T3-EGFR G719A+T790M subcutaneous, oral once daily, 50, 100, 200 mg/kg/day, FIG. 3) and “remarkable antitumor effect” in the data set on NIH3T3-EGFR G719A cells (NIH3T3-EGFR G719A subcutaneous, oral once daily 14 days, 50, 100, 200 mg/kg/day, FIG. 1). Also, the MTD at 14 days (in the data set “in vivo”; in [4]) was 200 mg/kg/day throughout. In addition, the IC50 amounted to 81800 nM on human EGFR L861Q+T790M; 86000 nM at human EGFR E709K; 597 nM in the data set with Ba/F3-EGFR_WT cells (Ba/F3 cells with human wild-type EGFR, 50 ng/mL EGF, 3 days); 37.5 nM in [1] (Ba/F3 cells with human EGFR L861Q+T790M, no EGF, 3 days); 31300 nM at human EGFR G719A+T790M; 40500 nM at human EGFR L861Q. The IC50 on human EGFR E709A came to 103000 nM; at human EGFR G719S, 22700 nM; at human EGFR G719C, 9300 nM; in data set [2] (Ba/F3 cells with human EGFR G719A+T790M, no EGF, 3 days), 15.8 nM; at human EGFR G719A it was 20500 nM; in the data set with Ba/F3-EGFR G719A cells (Ba/F3 cells with human EGFR G719A, no EGF, 3 days) it was 9 nM. In the data set with Ba/F3-EGFR L861Q cells (Ba/F3 cells with human EGFR L861Q, no EGF, 3 days), the IC50 turned out to be 19 nM. Also, in data set [1] (IC50 (WT)/IC50 (L861Q+T790M), Ba/F3 cells), the “IC50 Ratio WT/L861Q + T790M” value is 15.9. In data set [2] (IC50 (WT)/IC50 (G719A+T790M), Ba/F3 cells), the “IC50 Ratio WT/G719A + T790M” value is on record as 37.9. In addition, the “IC50 Ratio WT/G719A” value in the data set on Ba/F3-EGFR G719A cells (IC50 (WT)/IC50 (G719A), Ba/F3 cells) turned out to be 66.4. In addition, the “IC50 Ratio WT/L861Q” value in the data set with Ba/F3-EGFR L861Q cells (IC50 (WT)/IC50 (L861Q), Ba/F3 cells) is 31.4.
